Key:
[1] = molecular target: Casein kinase II subunit alpha' (Homo sapiens) (UniProt P19784); settings: at 10 µM
[2] = molecular target: Protein kinase C eta type (Homo sapiens) (UniProt P24723); assay: Selectivity interaction (Kinase screening (Nanosyn)) EUB0000604a PRKCH
[3] = molecular target: Cyclin-dependent kinase 5 (Homo sapiens, UniProt Q00535); assay: Selectivity interaction (KinomeScan (DiscoverX)) EUB0001049a CDK5; settings: at 1 µM
[4] = molecular target: Glycogen synthase kinase-3 beta (Homo sapiens, UniProt P49841); assay: Selectivity interaction (Ambit KINOMEscan and KiNATiv profiling in Jurkat cells) EUB0000090b GSK3B; assay type: cell-based; settings: at 1 µM
[5] = molecular target: Dual specificity mitogen-activated protein kinase kinase 2 (Homo sapiens) (UniProt P36507); assay: Selectivity interaction (Ambit KINOMEscan and KiNATiv profiling in Jurkat cells) EUB0000090b MAP2K2; assay type: cell-based; settings: at 1 µM
[6] = molecular target: DNA-dependent protein kinase catalytic subunit (Homo sapiens) (UniProt P78527); assay: Selectivity interaction (ActivX KiNativ screen (kinase selectivity in THP-1 cell lysates)) EUB0000639a PRKDC; assay type: subcellular; settings: lysate
[7] = molecular target: T1, Calcium/calmodulin-dependent protein kinase type IV (Homo sapiens) (UniProt Q16566); assay: Selectivity interaction (Kinase panel (Z-LYTE Assay)) EUB0001632a CAMK4; settings: at 10 µM
T1 sequence (whole entry): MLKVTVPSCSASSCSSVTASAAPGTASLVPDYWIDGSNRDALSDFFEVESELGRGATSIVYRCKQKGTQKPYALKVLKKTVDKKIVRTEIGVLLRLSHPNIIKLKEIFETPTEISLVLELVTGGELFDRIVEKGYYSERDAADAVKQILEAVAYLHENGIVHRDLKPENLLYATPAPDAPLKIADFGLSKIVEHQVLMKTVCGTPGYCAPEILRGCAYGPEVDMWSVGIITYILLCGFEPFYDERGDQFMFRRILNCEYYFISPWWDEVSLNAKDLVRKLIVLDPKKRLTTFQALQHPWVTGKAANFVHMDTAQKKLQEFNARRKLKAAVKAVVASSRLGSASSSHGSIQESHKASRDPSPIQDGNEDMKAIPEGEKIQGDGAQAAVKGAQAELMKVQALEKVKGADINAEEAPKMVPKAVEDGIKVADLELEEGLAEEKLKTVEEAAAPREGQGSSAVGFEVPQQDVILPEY

[8] = molecular target: Dual specificity protein kinase CLK2 (Homo sapiens, UniProt P49760); assay: Selectivity interaction (Kinase panel (Z-LYTE Assay)) EUB0001632a CLK2; settings: at 10 µM
[9] = molecular target: Calcium/calmodulin-dependent protein kinase type 1 (Homo sapiens) (UniProt Q14012); assay: Selectivity interaction (KinomeScan (DiscoverX)) EUB0000595a CAMK1; settings: at 10 µM
[10] = molecular target: Serine/threonine-protein kinase WNK2 (Homo sapiens) (UniProt Q9Y3S1); assay: Selectivity interaction (ProQinase) EUB0000171b WNK2
[11] = molecular target: Tyrosine-protein kinase BAZ1B (Homo sapiens) (UniProt Q9UIG0); assay: Selectivity interaction (Human bromodomain panel (DSF assay)) EUB0000233b BAZ1B
[12] = molecular target: Ribosomal protein S6 kinase alpha-3 (Homo sapiens, UniProt P51812); assay: Selectivity interaction (KinomeScan (DiscoverX)) EUB0000618a RPS6KA3; settings: at 10 µM
[13] = molecular target: Tyrosine-protein kinase Yes (Homo sapiens) (UniProt P07947); assay: Selectivity interaction (KinomeScan (DiscoverX)) EUB0000618a YES1; settings: at 10 µM
[14] = molecular target: Tyrosine-protein kinase JAK2 (Homo sapiens, UniProt O60674); assay: Selectivity interaction (NanoBRET assay (HEK293T cells)) EUB0001559a JAK2; assay type: cell-based, HEK-293T
[15] = molecular target: Mitogen-activated protein kinase 10 (Homo sapiens, UniProt P53779); assay: Selectivity interaction (SelectScreen profiling (Invitrogen)) EUB0000607a MAPK10; settings: at 2 µM
[16] = molecular target: T2, Serine/threonine-protein kinase Chk1 (Homo sapiens) (UniProt O14757); assay: Selectivity interaction (Kinase panel (KiNativ target engagement assay in Jurkat cells)) EUB0001635a CHEK1; assay type: cell-based; settings: at 1 µM
T2 sequence (whole entry): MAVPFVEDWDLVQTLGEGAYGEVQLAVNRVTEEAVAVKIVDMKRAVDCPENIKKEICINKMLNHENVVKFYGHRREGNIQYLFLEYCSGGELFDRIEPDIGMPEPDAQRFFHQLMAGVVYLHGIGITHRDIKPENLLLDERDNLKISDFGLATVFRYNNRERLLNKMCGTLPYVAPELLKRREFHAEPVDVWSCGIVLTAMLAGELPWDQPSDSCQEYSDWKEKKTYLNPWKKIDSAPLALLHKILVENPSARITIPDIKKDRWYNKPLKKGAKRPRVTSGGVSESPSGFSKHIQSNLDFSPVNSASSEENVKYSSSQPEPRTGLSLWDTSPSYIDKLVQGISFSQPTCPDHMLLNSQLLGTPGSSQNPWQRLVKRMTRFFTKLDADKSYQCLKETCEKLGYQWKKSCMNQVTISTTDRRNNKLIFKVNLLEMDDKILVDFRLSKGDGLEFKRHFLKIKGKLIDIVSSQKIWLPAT

[17] = molecular target: Leukocyte tyrosine kinase receptor (Homo sapiens, UniProt P29376); assay: Selectivity interaction (KinomeScan (DiscoverX)) EUB0000666a LTK; settings: at 10 µM

Chain of DNA-dependent protein kinase catalytic subunit (Homo sapiens) (P78527 whole entry): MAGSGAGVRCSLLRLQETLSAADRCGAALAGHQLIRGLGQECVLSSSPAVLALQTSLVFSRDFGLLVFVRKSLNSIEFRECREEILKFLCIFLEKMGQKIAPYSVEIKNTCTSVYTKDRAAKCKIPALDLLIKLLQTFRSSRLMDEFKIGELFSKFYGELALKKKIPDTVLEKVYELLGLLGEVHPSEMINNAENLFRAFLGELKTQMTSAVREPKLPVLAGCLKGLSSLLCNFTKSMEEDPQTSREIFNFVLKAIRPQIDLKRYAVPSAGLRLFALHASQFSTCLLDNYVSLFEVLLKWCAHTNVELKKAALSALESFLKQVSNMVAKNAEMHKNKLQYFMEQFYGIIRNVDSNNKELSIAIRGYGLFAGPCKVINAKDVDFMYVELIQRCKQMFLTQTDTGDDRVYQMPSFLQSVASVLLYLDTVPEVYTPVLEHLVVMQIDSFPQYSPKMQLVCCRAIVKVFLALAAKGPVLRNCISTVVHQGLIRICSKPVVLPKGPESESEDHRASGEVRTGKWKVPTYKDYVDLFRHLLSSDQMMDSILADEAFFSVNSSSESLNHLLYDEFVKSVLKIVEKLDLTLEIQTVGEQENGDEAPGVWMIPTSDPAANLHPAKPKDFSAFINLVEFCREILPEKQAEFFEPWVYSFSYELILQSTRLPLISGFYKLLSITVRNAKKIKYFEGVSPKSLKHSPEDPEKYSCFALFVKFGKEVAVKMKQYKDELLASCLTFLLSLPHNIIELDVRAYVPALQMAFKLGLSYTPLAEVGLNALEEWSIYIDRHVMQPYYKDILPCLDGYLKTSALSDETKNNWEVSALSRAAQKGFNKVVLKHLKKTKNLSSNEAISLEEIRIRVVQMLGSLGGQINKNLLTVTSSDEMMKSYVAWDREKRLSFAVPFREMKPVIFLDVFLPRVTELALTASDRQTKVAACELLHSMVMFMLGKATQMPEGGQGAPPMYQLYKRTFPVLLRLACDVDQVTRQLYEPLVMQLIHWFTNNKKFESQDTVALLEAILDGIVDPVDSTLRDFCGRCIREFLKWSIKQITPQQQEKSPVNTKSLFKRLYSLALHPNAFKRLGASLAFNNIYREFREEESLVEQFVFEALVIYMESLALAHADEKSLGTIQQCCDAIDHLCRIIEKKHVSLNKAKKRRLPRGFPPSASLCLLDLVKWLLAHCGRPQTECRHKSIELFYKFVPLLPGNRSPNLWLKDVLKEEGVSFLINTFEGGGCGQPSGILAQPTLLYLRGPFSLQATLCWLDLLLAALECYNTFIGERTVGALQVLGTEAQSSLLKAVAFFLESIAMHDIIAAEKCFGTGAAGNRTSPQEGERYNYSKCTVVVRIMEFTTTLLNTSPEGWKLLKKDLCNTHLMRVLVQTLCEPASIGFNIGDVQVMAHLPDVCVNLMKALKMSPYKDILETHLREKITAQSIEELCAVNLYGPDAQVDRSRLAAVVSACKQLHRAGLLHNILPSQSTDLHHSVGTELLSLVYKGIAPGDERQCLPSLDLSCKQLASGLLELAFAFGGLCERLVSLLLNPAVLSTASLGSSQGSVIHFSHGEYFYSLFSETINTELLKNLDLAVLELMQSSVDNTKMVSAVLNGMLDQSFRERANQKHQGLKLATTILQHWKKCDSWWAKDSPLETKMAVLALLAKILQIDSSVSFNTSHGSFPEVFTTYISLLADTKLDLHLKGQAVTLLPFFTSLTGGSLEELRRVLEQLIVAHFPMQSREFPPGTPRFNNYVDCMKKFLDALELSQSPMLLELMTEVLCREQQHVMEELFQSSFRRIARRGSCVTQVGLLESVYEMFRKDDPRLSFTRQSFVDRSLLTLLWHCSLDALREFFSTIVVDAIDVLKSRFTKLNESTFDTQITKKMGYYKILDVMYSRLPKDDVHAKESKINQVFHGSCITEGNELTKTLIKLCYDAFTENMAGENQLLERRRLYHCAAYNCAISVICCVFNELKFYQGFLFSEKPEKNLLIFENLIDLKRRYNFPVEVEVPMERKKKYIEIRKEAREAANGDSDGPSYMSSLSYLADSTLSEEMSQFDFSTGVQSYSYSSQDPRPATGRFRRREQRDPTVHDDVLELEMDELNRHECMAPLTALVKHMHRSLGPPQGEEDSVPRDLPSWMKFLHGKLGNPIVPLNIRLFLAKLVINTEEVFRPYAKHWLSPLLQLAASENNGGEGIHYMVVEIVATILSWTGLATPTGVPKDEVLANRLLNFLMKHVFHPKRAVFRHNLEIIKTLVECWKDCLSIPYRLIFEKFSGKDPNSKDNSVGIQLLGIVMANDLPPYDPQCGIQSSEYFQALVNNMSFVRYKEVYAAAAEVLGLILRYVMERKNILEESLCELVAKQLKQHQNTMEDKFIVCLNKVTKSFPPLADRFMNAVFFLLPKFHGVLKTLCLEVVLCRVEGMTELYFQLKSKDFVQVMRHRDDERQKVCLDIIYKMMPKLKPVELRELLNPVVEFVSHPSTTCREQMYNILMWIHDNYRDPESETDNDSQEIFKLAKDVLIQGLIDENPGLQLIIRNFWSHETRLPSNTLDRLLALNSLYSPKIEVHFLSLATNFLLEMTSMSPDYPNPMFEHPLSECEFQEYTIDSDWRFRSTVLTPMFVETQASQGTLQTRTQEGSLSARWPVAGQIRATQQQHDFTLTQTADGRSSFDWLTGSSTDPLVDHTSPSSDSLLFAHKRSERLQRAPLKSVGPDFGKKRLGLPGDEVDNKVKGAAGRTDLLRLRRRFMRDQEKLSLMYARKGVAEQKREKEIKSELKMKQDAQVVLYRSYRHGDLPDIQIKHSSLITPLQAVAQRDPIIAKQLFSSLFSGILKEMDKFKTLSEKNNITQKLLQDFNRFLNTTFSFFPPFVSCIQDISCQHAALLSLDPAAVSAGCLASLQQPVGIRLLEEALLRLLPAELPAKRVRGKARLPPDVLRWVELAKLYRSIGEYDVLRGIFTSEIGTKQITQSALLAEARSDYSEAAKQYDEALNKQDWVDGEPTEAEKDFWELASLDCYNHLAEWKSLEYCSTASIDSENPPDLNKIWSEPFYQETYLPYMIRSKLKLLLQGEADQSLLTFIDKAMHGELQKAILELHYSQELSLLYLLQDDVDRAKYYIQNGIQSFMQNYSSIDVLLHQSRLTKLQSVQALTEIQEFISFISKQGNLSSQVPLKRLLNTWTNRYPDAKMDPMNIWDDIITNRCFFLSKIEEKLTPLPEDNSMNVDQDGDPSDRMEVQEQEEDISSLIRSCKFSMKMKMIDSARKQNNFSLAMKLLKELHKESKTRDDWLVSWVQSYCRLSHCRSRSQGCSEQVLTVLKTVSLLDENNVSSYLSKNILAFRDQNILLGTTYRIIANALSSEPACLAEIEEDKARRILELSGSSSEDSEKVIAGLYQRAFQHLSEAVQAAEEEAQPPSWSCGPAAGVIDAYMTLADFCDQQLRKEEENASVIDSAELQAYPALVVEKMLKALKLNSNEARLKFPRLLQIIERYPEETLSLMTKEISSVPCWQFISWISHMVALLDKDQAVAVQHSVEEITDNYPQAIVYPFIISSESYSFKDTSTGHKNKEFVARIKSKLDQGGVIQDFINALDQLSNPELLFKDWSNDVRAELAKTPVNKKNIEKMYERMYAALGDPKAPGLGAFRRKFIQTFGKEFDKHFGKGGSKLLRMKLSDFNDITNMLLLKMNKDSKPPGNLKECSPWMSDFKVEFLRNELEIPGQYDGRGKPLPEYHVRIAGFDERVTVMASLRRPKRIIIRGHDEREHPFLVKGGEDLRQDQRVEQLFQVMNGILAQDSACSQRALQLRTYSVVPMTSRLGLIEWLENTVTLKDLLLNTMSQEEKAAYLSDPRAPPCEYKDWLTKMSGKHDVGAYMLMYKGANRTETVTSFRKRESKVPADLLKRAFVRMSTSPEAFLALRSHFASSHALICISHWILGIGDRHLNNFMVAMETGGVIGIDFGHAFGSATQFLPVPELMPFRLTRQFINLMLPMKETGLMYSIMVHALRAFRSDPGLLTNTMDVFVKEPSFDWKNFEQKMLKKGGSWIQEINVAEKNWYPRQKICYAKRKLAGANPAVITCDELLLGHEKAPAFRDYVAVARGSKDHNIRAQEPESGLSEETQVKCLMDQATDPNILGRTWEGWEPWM
Chain of Mitogen-activated protein kinase 10 (P53779 whole entry): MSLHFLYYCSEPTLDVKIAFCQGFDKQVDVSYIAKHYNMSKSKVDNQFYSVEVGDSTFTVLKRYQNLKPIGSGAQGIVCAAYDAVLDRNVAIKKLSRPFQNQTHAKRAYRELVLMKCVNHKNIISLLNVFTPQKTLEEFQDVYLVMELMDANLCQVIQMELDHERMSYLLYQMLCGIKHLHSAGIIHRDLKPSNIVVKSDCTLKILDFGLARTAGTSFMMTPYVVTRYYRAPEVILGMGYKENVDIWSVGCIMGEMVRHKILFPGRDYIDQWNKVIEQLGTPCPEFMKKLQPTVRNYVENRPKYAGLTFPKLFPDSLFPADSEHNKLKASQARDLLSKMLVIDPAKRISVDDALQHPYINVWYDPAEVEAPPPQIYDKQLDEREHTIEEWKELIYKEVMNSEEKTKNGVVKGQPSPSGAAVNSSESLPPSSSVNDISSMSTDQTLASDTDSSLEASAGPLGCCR
Chain of Dual specificity protein kinase CLK2 (P49760 whole entry, looked up): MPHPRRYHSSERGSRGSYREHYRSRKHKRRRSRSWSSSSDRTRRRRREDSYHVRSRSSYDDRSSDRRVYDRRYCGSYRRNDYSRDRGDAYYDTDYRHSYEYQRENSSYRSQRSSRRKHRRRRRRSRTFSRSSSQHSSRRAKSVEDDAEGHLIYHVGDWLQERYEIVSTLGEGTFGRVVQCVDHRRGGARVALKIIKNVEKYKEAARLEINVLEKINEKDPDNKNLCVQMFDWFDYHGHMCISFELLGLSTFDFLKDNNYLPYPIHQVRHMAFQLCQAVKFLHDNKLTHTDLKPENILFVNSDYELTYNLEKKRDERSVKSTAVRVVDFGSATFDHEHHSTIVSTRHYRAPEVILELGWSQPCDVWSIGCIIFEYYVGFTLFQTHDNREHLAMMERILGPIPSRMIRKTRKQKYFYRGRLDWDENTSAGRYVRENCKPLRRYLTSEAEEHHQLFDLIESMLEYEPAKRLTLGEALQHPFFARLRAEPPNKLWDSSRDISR

Compound `Cc1cc([C@@H](C)Nc2ccccc2C(=O)O)c2nc(N3CCOCC3)cc(=O)n2c1` [AZD-6482] has a % of control [1] of 100%.

For `Cc1cnc(Nc2ccc(F)cc2Cl)nc1-c1c[nH]c(C(=O)N[C@H](CO)c2cccc(Cl)c2)c1`, the % of inhibition [2] was 2%.

Compound `COc1cc(Nc2nc(C)cc(-c3cnn4nc(OC)ccc34)n2)cc(C(F)(F)F)c1` has a % of control [3] of 89%.

Compound `CN(C)C/C=C/C(=O)Nc1ccc(C(=O)N2CCCC(Nc3ncc(Cl)c(-c4c[nH]c5ccccc45)n3)C2)cc1` (stereo not drawn) has a % of control [4] of 38% and a % of control [5] of 93%.

`CC[C@@H]1[C@H](F)C(=O)N[C@@H]1COc1nccc2cc(C(N)=O)c(OC)cc12` [ZIMLOVISERTIB] was tested, and the % of inhibition ([6]; at 0.01 µM) was -17.9%, the % of inhibition ([6]; at 0.04 µM) was -5.4% and the % of inhibition ([6]; at 0.2 µM) was 5%. It also gave a % of inhibition ([6]; at 1 µM) of 12.5% and a % of inhibition ([6]; at 5 µM) of -1.4%.

Compound `Cn1cc(-n2cnc3c(NCc4nc5cc(Cl)c(Cl)cc5[nH]4)nc(N4CCOCC4)nc32)cn1` has a % of control [7] of -4.99% and a % of control [8] of 4.94%.

For `COCC(=O)NC/C=C/c1ccc2ncnc(Nc3ccc(Oc4ccc(C)nc4)c(C)c3)c2c1` [CP-724714], the % of control [9] was 72%.

`C=CC(=O)Nc1cccc(C(=O)Nc2ccc(Nc3cc(-c4[nH]c(SC)nc4C)ccn3)cc2)c1` gave a % of control ([10]; at 1 µM) of 98% and a % of control ([10]; at 5 µM) of 78%.

In the case of `CN(C)CCCOc1ccc(-c2cc(NCCCn3cccn3)nc(S(C)(=O)=O)n2)cc1`, the dTM [11] is reported as under 2 K.

`O[C@H]1CC[C@H](Nc2ncc3nc(Nc4c(F)cc(F)cc4F)n([C@H]4CCOC4)c3n2)CC1` gave a % of control [12] of 60% and a % of control [13] of 98%.

Compound `CN(C(=O)c1cnn2cccnc12)c1cc2c(cc1N1CCOCC1)C(=O)N(C[C@@H](F)C(C)(C)O)C2` has an EC50 [14] of over 50 µM.

In the case of `CNC(=O)Nc1ccc(-c2nc(N3CC4CCC(C3)O4)c3cnn(C4CCC5(CC4)OCCO5)c3n2)cc1`, the % of inhibition [15] is reported as 14%.

`C=CC(=O)Nc1ccc(C(=O)Nc2[nH]nc3c2CN(C(=O)N[C@H](CN(C)C)c2ccccc2)C3(C)C)cc1` showed a % of engagement ([16]; Selectivity number of off-targets 0.0, Selectivity number of targets 233.0, Source Knowledge https://www.sciencedirect.com/science/article/pii/S2451945619300674?via%3Dihub) of 5.4% and a % of engagement [16] of 16.4%.

In the case of `O=C(NOC[C@H](O)CO)c1ccc(F)c(F)c1Nc1ccc(I)cc1F`, the % of control [17] is reported as 100%.

— ChEMBL document CHEMBL5465560, “Selectivity Literature for EUbOPEN Chemogenomic Library” (2024)
